# Experimental data: article PMC12278645, “Design, synthesis, and antitumor activity of novel thioheterocyclic nucleoside derivatives by suppressing the c-MYC pathway” (Acta Pharmaceutica Sinica. B, 2025)
# Legend:
# [1] = tested on: DU145 (human prostate cancer); assay: CCK-8 anti-proliferation assay, DU145; format: cell-based; settings: CCK-8, 48 h, mean ± SD
# Procedure: (§1) To evaluate their spectrum of anti-proliferative activity, further CCK-8 assays were carried out with the selected compounds (5a/5b, 8a/8b, 33a/33b, and 36a/36b) on MCF-7 (human breast cancer), A375 (human malignant melanoma), DU145 (human prostate cancer), and CT26 (mouse colon cancer) cell lines. The selected compounds had moderate to potent antitumor activity on the four cell lines, indicating their broad spectrum of antitumor activity (Table 5).
# (§2) MCF-7, A375, and HeLa cells were cultured in DMEM, HCT116 cells were cultured in McCoy's 5A medium, and DU145 and CT26 were cultured in RPMI 1640 with 10% FBS, 1% penicillin-streptomycin solution (10,000 U/mL penicillin and 10,000 μg/mL streptomycin) at 37 °C under 5% CO2. The cells were seeded in 96-well plates (4 × 10^3 cells/well) overnight and then treated with various concentrations (1–50 μmol/L) of the compound. After 48 h, the cell viability was measured by CCK-8 assay. The absorbance of each well was measured using a microplate reader (Multiskan FC, Thermo Fisher Scientific, Massachusetts, USA) at 450 nm wavelength. Assays were performed in triplicate. Compound concentrations that inhibited cell growth by 50% (IC50) were calculated from the dose–response curves of each cell line. Data are mean ± SD values from three independent experiments.
# [2] = tested on: CT26 (mouse colon cancer); assay: CCK-8 anti-proliferation assay, CT26; format: cell-based; settings: CCK-8, 48 h, mean ± SD
# Procedure: as §1, §2
# HeLa cells = assay: CCK-8 anti-proliferation assay, HeLa; format: cell-based, human
# Procedure: (§3) Tumor cell anti-proliferation activities were determined by cell counting kit-8 (CCK-8) assay.
# as §2
# [3] = tested on: MCF-7 (human breast cancer); assay: CCK-8 anti-proliferation assay, MCF-7; format: cell-based; settings: CCK-8, 48 h, mean ± SD
# Procedure: as §1, §2
# [4] = tested on: A375 (human malignant melanoma); assay: CCK-8 anti-proliferation assay, A375; format: cell-based; settings: CCK-8, 48 h, mean ± SD
# Procedure: as §1, §2
# HCT116 cells = assay: CCK-8 anti-proliferation assay, HCT116; format: cell-based, human; settings: for anticancer activity: under 50 μmol/L, HeLa and HCT116
# Procedure: as §3, §2
# [5] = CCK-8, 48 h, mean ± SD, three independent experiments
# [6] = Homo sapiens, HeLa, 48 h, CCK-8, 48 h, mean ± SD, three independent experiments
# [7] = Homo sapiens, HCT-116, 48 h, CCK-8, 48 h, mean ± SD, three independent experiments
structure (smiles),measurement,setting,value
"CCOC(=O)C1(n2cnc3c(N4CCCCC4)ncnc32)CSCC1O (single isomer, unassigned) [5a]",IC50,[1],42.8 ± 2.12 µM
same,IC50,[2],2.33 ± 0.14 µM
same,IC50,HeLa cells; [5],2.65 ± 0.52 µM
same,IC50,[3],11.2 ± 1.04 µM
same,IC50,[4],11.8 ± 1.12 µM
same,IC50,HCT116 cells; [5],1.84 ± 0.14 µM
"CCOC(=O)C1(n2cnc3c(N4CCCCC4)ncnc32)CSCC1O (single isomer, unassigned) [5b]",IC50,[1],42.5 ± 2.11 µM
same,IC50,[2],2.42 ± 0.11 µM
same,IC50,HeLa cells; [5],4.61 ± 0.87 µM
same,IC50,[3],35.2 ± 2.14 µM
same,IC50,[4],7.52 ± 1.03 µM
same,IC50,HCT116 cells; [5],1.77 ± 0.12 µM
"CCCSc1ncnc2c1ncn2C1(C(=O)OCC)CSCC1O (single isomer, unassigned) [8a]",IC50,[1],29.3 ± 1.37 µM
same,IC50,[2],2.58 ± 0.15 µM
same,IC50,HeLa cells; [5],2.77 ± 0.41 µM
same,IC50,[3],28.2 ± 2.16 µM
same,IC50,[4],4.52 ± 1.12 µM
same,IC50,HCT116 cells; [5],3.43 ± 0.23 µM
"CCCSc1ncnc2c1ncn2C1(C(=O)OCC)CSCC1O (single isomer, unassigned) [8b]",IC50,[1],11 ± 1.04 µM
same,IC50,[2],2.37 ± 0.08 µM
same,IC50,HeLa cells; [5],2.55 ± 0.12 µM
same,IC50,[3],25.4 ± 2.45 µM
same,IC50,[4],2.82 ± 0.03 µM
same,IC50,HCT116 cells; [5],2.02 ± 0.07 µM
"CCOC(=O)C1(n2cnc3c(Cl)nc(F)nc32)CSCC1O (single isomer, unassigned) [39a]",IC50,"HeLa cells; Table S3, CCK-8, mean ± SD",11.2 ± 1.32 µM
same,IC50,"HCT116 cells; Table S3, CCK-8, mean ± SD",3.42 ± 0.42 µM
"CCOC(=O)C1(n2cnc3c(Cl)nc(F)nc32)CSCC1O (single isomer, unassigned) [39b]",IC50,"HeLa cells; Table S3, CCK-8, mean ± SD",9.33 ± 1.17 µM
same,IC50,"HCT116 cells; Table S3, CCK-8, mean ± SD",2.01 ± 0.24 µM
"CCOC(=O)C1(n2cnc3c(Cl)nc(Cl)nc32)CSCC1O (single isomer, unassigned) [40a]",IC50,"HeLa cells; Table S3, CCK-8, mean ± SD",8.21 ± 1.25 µM
same,IC50,"HCT116 cells; Table S3, CCK-8, mean ± SD",5.37 ± 1.02 µM
"CCOC(=O)C1(n2cnc3c(Cl)nc(Cl)nc32)CSCC1O (single isomer, unassigned) [40b]",IC50,"HeLa cells; Table S3, CCK-8, mean ± SD",4.45 ± 1.07 µM
same,IC50,"HCT116 cells; Table S3, CCK-8, mean ± SD",2.13 ± 0.46 µM
"CCOC(=O)C1(n2cnc3c(N4CCOCC4)nc(Cl)nc32)CSCC1O (single isomer, unassigned) [42a]",IC50,"HeLa cells; Table S3, CCK-8, mean ± SD",6.32 ± 1.02 µM
same,IC50,"HCT116 cells; Table S3, CCK-8, mean ± SD",24.2 ± 1.32 µM
"CCOC(=O)C1(n2cnc3c(N4CCOCC4)nc(Cl)nc32)CSCC1O (single isomer, unassigned) [42b]",IC50,"HeLa cells; Table S3, CCK-8, mean ± SD",3.21 ± 0.65 µM
same,IC50,"HCT116 cells; Table S3, CCK-8, mean ± SD",4.48 ± 0.56 µM
CCOC(=O)C1(n2cnc3cncnc32)CSCC1O (stereo not shown) [1a],IC50,HeLa cells; [5],> 50 µM
same,IC50,HCT116 cells; [5],> 50 µM
same,anticancer activity,HCT116 cells,no anticancer activity
"O=c1[nH]cc(F)c(=O)[nH]1 [5-FU, 5-fluorouracil, reference compound]",IC50,"[1]; Homo sapiens, DU-145",21.4 ± 2.17 µM
same,IC50,"[2]; Mus musculus, CT26",3.12 ± 0.13 µM
same,IC50,HeLa cells; [6],4.93 ± 1.02 µM
same,IC50,"[3]; Homo sapiens, MCF7",> 50 µM
same,IC50,"[4]; Homo sapiens, A-375",8.62 ± 1.21 µM
same,IC50,HCT116 cells; [7],9.84 ± 2.32 µM
CCOC(=O)C1(n2cnc3c(OCC)ncnc32)CSCC1O (stereo not shown) [6a],IC50,HeLa cells; [5],> 50 µM
same,IC50,HCT116 cells; [5],> 50 µM
CCOC(=O)C1(n2cnc3c(OC)ncnc32)CSCC1O (stereo not shown) [7a],IC50,HeLa cells; [5],> 50 µM
same,IC50,HCT116 cells; [5],> 50 µM
CCOC(=O)C1(n2cnc3c(N4CCC(Cc5ccccc5)CC4)ncnc32)CSCC1O (stereo not shown) [16a],IC50,HeLa cells; [5],3.34 ± 0.36 µM
same,IC50,HCT116 cells; [5],1.2 ± 0.09 µM
CCOC(=O)C1(n2cnc3c(N4CCN(C)CC4)ncnc32)CSCC1O (stereo not shown) [18a],IC50,HeLa cells; [5],> 50 µM
same,IC50,HCT116 cells; [5],> 50 µM
same,anticancer activity,HCT116 cells,inactive
CCOC(=O)[C@@]1(n2cnc3c(N4CCCCC4)nc(F)nc32)CSC[C@@H]1O [33 ab],IC50,HeLa cells; [6],10.1 ± 1.02 µM
same,IC50,HCT116 cells; [7],0.21 ± 0.13 µM
CCOC(=O)[C@]1(n2cnc3c(N4CCCCC4)nc(F)nc32)CSC[C@H]1O [33aa],IC50,HeLa cells; [6],6.17 ± 1.01 µM
same,IC50,HCT116 cells; [7],0.58 ± 0.17 µM
CCOC(=O)C1(n2cnc3c(N4CCCCC4)nc(F)nc32)CSCC1O (stereo not shown) [33b],IC50,[1],18.6 ± 2.12 µM
same,IC50,[2],0.79 ± 0.14 µM
same,IC50,HeLa cells; [5],8.15 ± 1.08 µM
same,IC50,[3],7.47 ± 1.17 µM
same,IC50,[4],14.67 ± 0.09 µM
same,IC50,HCT116 cells; [5],0.46 ± 0.04 µM
CCCSc1nc(F)nc2c1ncn2C1(C(=O)OCC)CSCC1O (stereo not shown) [36a],IC50,[1],9.48 ± 1.11 µM
same,IC50,[2],0.94 ± 0.11 µM
same,IC50,HeLa cells; [5],9.68 ± 1.12 µM
same,IC50,[3],11.3 ± 1.27 µM
same,IC50,[4],4.27 ± 1.02 µM
same,IC50,HCT116 cells; [5],0.72 ± 0.12 µM
CCCSc1nc(F)nc2c1ncn2[C@@]1(C(=O)OCC)CSC[C@@H]1O [36ba],IC50,HeLa cells; [5],5.52 ± 1.12 µM
same,IC50,HCT116 cells; [5],0.89 ± 0.14 µM
CCCSc1nc(F)nc2c1ncn2[C@]1(C(=O)OCC)CSC[C@H]1O [36bb],IC50,HeLa cells; [6],9.49 ± 1.18 µM
same,IC50,HCT116 cells; [7],0.37 ± 0.08 µM
CCOC(=O)C1(n2cnc3cnc(Cl)nc32)CSCC1O (stereo not shown) [41a],IC50,"HeLa cells; Table S3, CCK-8, mean ± SD",> 50 µM
same,IC50,"HCT116 cells; Table S3, CCK-8, mean ± SD",> 50 µM
"N.N.[Cl][Pt][Cl] [Cisplatin, cisplatin, reference compound]",IC50,[1],9.65 ± 0.48 µM
same,IC50,[2],22.5 ± 1.28 µM
same,IC50,HeLa cells; [5],11.2 ± 0.81 µM
same,IC50,[3],6.32 ± 0.74 µM
same,IC50,[4],9.42 ± 0.87 µM
same,IC50,HCT116 cells; [5],5.29 ± 0.25 µM
